Laboratory results published in US7521444B2, “Compounds for the treatment of hepatitis C” (Bristol-Myers Squibb Company, priority 2007, dated 2009).
pEC50, pIC50: −log10 of the molar value.

Key:
[1] = test system: HCV replicon cells; assay: HCV replicon FRET / luciferase assay; type: cell-based; details: Hepatitis C virus, 50% reduction in FRET or luciferase activity
Protocol: FRET Assay Preparation. The HCV FRET screening assay was performed in 96-well cell culture plates. The FRET peptide (Anaspec, Inc.) (Taliani et al., Anal. Biochem. 1996, 240, 60-67) contains a fluorescence donor, EDANS, near one end of the peptide and an acceptor, DABCYL, near the other end. The fluorescence of the peptide is quenched by […] resonance energy transfer (RET) between the donor and the acceptor, but as the NS3 protease cleaves the peptide the products are released from RET quenching and the fluorescence of the donor becomes apparent. The assay reagent was made as follows: 5× cell Luciferase cell culture lysis reagent from Promega (#E153A) diluted to 1× with dH2O, NaCl added to 150 mM final, the FRET peptide diluted to 20 μM final from a 2 mM stock.
To prepare plates, HCV replicon cells, with or without a Renilla luciferase reporter gene, were trypsinized and plated in a 96-well plate with titrated test compounds added in columns 3 through 12; columns 1 and 2 contained a control compound (HCV control inhibitor), and the bottom row contained cells with DMSO only. The plates were then placed in a CO2 incubator at 37° C.
Assays. Subsequent to addition of the test compounds described above (FRET Assay Preparation), at various times the plate was removed and Alamar blue solution (Trek Diagnostics, #00-100) was added to measure cellular toxicity. After reading in a Cytoflour 4000 instrument (PE Biosystems), plates were rinsed with PBS and then used for FRET assay by the addition of 30 ul of the FRET peptide assay reagent described above (FRET Assay Preparation) per well. The plate was then placed into the Cytoflour 4000 instrument which had been set to 340 excite/490 emission, automatic mode for up to 20 cycles and the plate read in a kinetic mode. Typically, the signal to noise using an endpoint analysis after the reads was at least three-fold. Alternatively, after Alamar blue reading, plates were rinsed with PBS, then used for luciferase assay using the Promega Dual-Glo Luciferase Assay System or the Promega EnduRen Live Cell Substrate assay.
Compound analysis was performed by quantification of the relative HCV replicon inhibition and the relative cytotoxicity values. To calculate cytoxicity values, the average Alamar Blue fluorescence signals from the control wells were set as 100% non-toxic. The individual signals in each of the compound test wells were then divided by the average control signal and multiplied by 100% to determine […]. To calculate the HCV replicon inhibition values, an average background value was obtained from the two wells containing the highest amount of HCV control inhibitor at the end of the assay period. These numbers were similar to those obtained from naïve Huh-7 cells. The background numbers were then subtracted from the average signal obtained from the control wells and this number was used as 100% activity. The individual signals in each of the compound test wells were then divided by the averaged control values after background subtraction and multiplied by 100% to determine percent activity. EC50 values were calculated as the concentration which caused a 50% reduction in FRET or luciferase activity. The two numbers generated for the compound plate, percent cytoxicity and percent activity, were used to determine compounds of interest for further analysis.

[2] = biological target: T1, HCV NS5B (Hepatitis C virus genotype 1b, UniProt Q9WMX2); assay: HCV NS5B RdRp enzyme assay (standard or modified); type: biochemical; details: HCV NS5B RdRp genotype 1b enzyme; standard or modified assay not stated
T1 construct: The protein was expressed with an 18 amino acid C-terminal truncation to enhance the solubility; made in house; host or cells: E. coli BL21(DE3), pET21a
T1 sequence (Q9WMX2 2420-2992): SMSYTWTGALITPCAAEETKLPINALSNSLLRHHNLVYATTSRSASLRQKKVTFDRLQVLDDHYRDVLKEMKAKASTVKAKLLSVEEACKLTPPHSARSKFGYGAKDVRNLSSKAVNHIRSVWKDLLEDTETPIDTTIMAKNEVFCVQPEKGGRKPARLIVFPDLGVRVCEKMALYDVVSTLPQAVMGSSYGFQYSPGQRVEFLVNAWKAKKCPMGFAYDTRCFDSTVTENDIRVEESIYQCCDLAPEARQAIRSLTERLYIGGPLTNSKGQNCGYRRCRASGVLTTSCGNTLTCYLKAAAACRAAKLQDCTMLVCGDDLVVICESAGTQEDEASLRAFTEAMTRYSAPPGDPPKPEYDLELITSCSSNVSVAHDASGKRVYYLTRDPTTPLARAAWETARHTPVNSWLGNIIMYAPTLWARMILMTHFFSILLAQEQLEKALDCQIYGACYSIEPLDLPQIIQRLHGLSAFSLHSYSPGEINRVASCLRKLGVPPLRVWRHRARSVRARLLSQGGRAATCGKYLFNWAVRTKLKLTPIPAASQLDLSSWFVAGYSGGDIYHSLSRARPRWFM
Protocol: HCV NS5B RdRp cloning, expression, and purification. The cDNA encoding the NS5B protein of HCV, genotype 1b, was cloned into the pET21a expression vector. The protein was expressed with an 18 amino acid C-terminal truncation to enhance the solubility. The E. coli competent cell line BL21(DE3) was used for expression of the protein. Cultures were grown at 37° C. for ˜4 hours until the cultures reached an optical density of 2.0 at 600 nm. The cultures were cooled to 20° C. and induced with 1 mM IPTG. Fresh ampicillin was added to a final concentration of 50 μg/ml and the cells were grown overnight at 20° C.
Cell pellets (3 L) were lysed for purification to yield 15-24 mgs of purified NS5B. The lysis buffer consisted of 20 mM Tris-HCl, pH 7.4, 500 mM NaCl, 0.5% triton X-100, 1 mM DTT, 1 mM EDTA, 20% glycerol, 0.5 mg/ml lysozyme, 10 mM MgCl2, 15 ug/ml deoxyribonuclease I, and Complete TM protease inhibitor tablets (Roche). After addition of the lysis buffer, frozen cell pellets were resuspended using a tissue homogenizer. To reduce the viscosity of the sample, aliquots of the lysate were sonicated on ice using a microtip attached to a Branson sonicator. The sonicated lysate was centrifuged at 100,000×g for 1 hr at 4° C. and filtered through a 0.2 μm filter unit (Corning).
The protein was purified using two sequential chromatography steps: Heparin sepharose CL-6B and polyU sepharose 4B (Pharmacia). The chromatography buffers were identical to the lysis buffer but contained no lysozyme, deoxyribonuclease I, MgCl2 or protease inhibitor and the NaCl concentration of the buffer was adjusted according to the requirements for charging the protein onto the column. Each column was eluted with a NaCl gradient which varied in length from 5-50 column volumes depending on the column type. After the final chromatography step, the resulting purity of the enzyme is >90% based on SDS-PAGE analysis. The enzyme was aliquoted and stored at −80° C.
Standard HCV NS5B RdRp enzyme assay. HCV RdRp genotype 1b assays were run in a final volume of 60 μl in 96 well plates (Corning 3600). The assay buffer is composed of 20 mM Hepes, pH 7.5, 2.5 mM KCl, 2.5 mM MgCl2, 1 mM DTT, 1.6 U RNAse inhibitor (Promega N2515), 0.01 mg/ml BSA (Sigma B6917), and 2% glycerol. All compounds were serially diluted (3-fold) in DMSO and diluted further in water such that the final concentration of DMSO in the assay was 2%. HCV RdRp genotype 1b enzyme was used at a final concentration of 28 nM. A polyA template was used at 6 nM, and a biotinylated oligo-dT12 primer was used at 180 nM final concentration. Template was obtained commercially (Amersham 27-4110). Biotinylated primer was prepared by Sigma Genosys. 3H-UTP was used at 0.6 μCi (0.29 μM total UTP). Reactions were initiated by the addition of enzyme, incubated at 30° C. for 60 min, and stopped by adding 25 μl of 50 mM EDTA containing SPA beads (4 μg/μl, Amersham RPNQ 0007). Plates were read on a Packard Top Count NXT after >1 hr incubation at room temperature.
Modified HCV NS5B RdRp enzyme assay. A modified enzyme assay was performed essentially as described for the standard enzyme assay except for the following: The biotinylated oligo dT12 primer was precaptured on streptavidin-coated SPA beads by mixing primer and beads in assay buffer and incubating at room temperature for one hour. Unbound primer was removed after centrifugation. The primer-bound beads were resuspended in 20 mM Hepes buffer, pH 7.5 and used in the assay at final concentrations of 20 nM primer and 0.67 μg/μl beads. Order of addition in the assay: enzyme (1.75 nM) was added to diluted compound followed by the addition of a mixture of template (0.36 nM), 3H-UTP (0.6 μCi, 0.29 μM), and primer-bound beads, to initiate the reaction; concentrations given are final. Reactions were allowed to proceed for 4 hours at 30° C.
IC50 values for compounds were determined using seven different [I]. […]

Work on `COc1ccc2c(c1)C1CC1(C(=O)N1CCN3CCC[C@@H]3C1)Cn1c-2c(C2CCCCC2)c2ccc(C(=O)NS(C)(=O)=O)cc21` (some centres unmarked) yielded a pEC50 [1] of 6.30 to 8.34 and a pIC50 [2] of 6.30 to 8.34.
